Test results taken from patent publication EP1268431B1 (Wyeth, priority 2000, dated 2001).
“And” between values parts separate entries of the source, which are not always exact repeats. Equal entries are not always repeated.

Key:
[1] = test system: Human adenocarcinoma cell line LoVo; experiment: Cell Based Screen for Inhibitors of Raf Kinase, LoVo cells; conditions: four days, SRB
Protocol: (§1) • Cell Lines: Human adenocarcinoma cell line LoVo which is known to be growth inhibited by low nM concentrations of a reference standard inhibitor of Ras and human adenocarcinoma cell line CaCo-2, which is known to be growth resistant to the same reference compound. • Cell Media: RPMI 1640 with 10% Fetal Bovine Serum supplemented with L-glutamine and Pennicilin/Streptomycin. • Compounds: Supplied usually as a 10 mM stock in 100% DMSO. • Normal Saline: 150 mM NaCl • Trichloroacetic Acid (TCA): 50% (w/v) in water • Sulforhodamine B (SRB): 0.4% (w/v) in 1% Acetic Acid • Tris Base: 10 mM in water
(§2) Cells are plated at 2000 cells per well for cell line LoVo and 1500 cells for cell line CaCo-2 in 96 well plates. Cells are plated in media (200 µl) and allowed to adhere overnight at 37° C. At 24 hours post plating, compounds are added directly at a volume of 0.5 µl. For the qualitative screen (compounds screened at 25 µM) compound is added directly to cells. For the quantitative screen, compound is first diluted in DMSO to generate concentrations of compound or reference standard of: 1, 5, 10 and 25 µM. It is advisable to make the dilutions in an identical 96 well plate so that compounds may be added using a multichannel micropipettor set at 0.5 µl. The cells are then incubated for four days after which the media is removed using a 12 well manifold by first tipping the plate forward at a 45 degree angle and then inserting the manifold in an upright orientation to prevent the tips of the manifold from disturbing cells at the bottom of the plate. 200 µl of normal saline is then added to each well using an 8 well multichannel pipettor, followed by the careful addition of 50 µl of 50% TCA. The plates are then incubated for 2 hours at 4 ° C, after which the supernatant is removed using the same technique as above and the plated washed twice with 200 µl water. The plates are then air dried and 50 µl of SRB stock solution is carefully added so that the entire bottom of each well is covered. This again may be used using an 8 well multichannel pipettor. The SRB is incubated with fixed cells for 15 minutes at room temperature after which the SRB is removed with the manifold as described above and the plates washed twice with 350 µl of 1% acetic acid per well each time.The plates are then air dried after which the bound SRB is released from protein by the addition of 200 µl of Tris base. Resolubilizing the SRB is aided by placing the plates on a rotator for 15-30 minutes. The absorbance of each well is determined at 550 or 562 nm using a microtiter plate reader.
(§3) Each compound or dilution thereof is performed in triplicate. Outliers are identified by visual inspection of the data. Each plate should have a "0" control (vehicle only).
(§4) Quantitative Assay: A standard curve is constructed by plotting the concentration of compound against the average absorbance calculated at that concentration. A curve is plotted and the concentration at which the curve passes through the 50% the absorbance mark seen in the "0" control well is the IC50 calculated for that compound. […]

[2] = test system: human adenocarcinoma cell line CaCo-2; experiment: Cell Based Screen for Inhibitors of Raf Kinase, CaCo-2 cells; conditions: CaCo-2, four days, SRB
Protocol: as §1, §2, §3, §4

| Structure (SMILES) | IC50 ([1]; Homo sapiens, 96 h) [nM] | IC50 ([2]; Homo sapiens, Caco-2, 96 h) [nM] | IC50 [1] | IC50 [2] [nM] |
| --- | --- | --- | --- | --- |
| Cn1ccnc1Sc1ccc(Nc2c(C#N)cnc3cc(-c4ccc(CN5CCC(O)CC5)cn4)ccc23)cc1Cl [Example 172, 4-{3-chloro-4-[(1-methyl-1H-imidazol-2-yl)sulfanyl]anilino}-7-{5-[(4-hydroxy-1-piperidinyl)methyl]-2-pyridinyl}-3-quinolinecarbonitrile] | 7.9 | > 1000 |  |  |
| CN(CCO)c1ccc(-c2ccc3c(Nc4ccc(Sc5nccn5C)c(Cl)c4)c(C#N)cnc3c2)cn1 [Example 216, 4-({3-chloro-4-[(1-methyl-1H-imidazol-2-yl)sulfanyl]phenyl}amino)-7-{6-[(2-hydroxyethyl)(methyl)amino]-3-pyridinyl}-3-quinolinecarbonitrile] | 7 | > 1000 |  |  |
| COc1cc2c(Nc3ccc(Sc4nccn4C)c(Cl)c3)c(C#N)cnc2cc1-c1csc(CN2CCOCC2)c1 [Example 125, 4-{3-Chloro-4-[(1-methyl-1H-imidazol-2-yl)sulfanyl]anilino}-6-methoxy-7-[5-(4-morpholinylmethyl)-3-thienyl]-3-quinolinecarbonitrile] | 20 | 1900 | 15 nM | 2800 |
| CN1CCN(c2ccc(-c3ccc4c(Nc5ccc(Sc6nccn6C)c(Cl)c5)c(C#N)cnc4c3)cn2)CC1 [Example 196, 4-{3-chloro-4-[(1-methyl-1H-imidazol-2-yl)sulfanyl]anilino}-7-[6-(4-methyl-1-piperazinyl)-3-pyridinyl]-3-quinolinecarbonitrile] | < 5 | 1100 | 2.9 nM | 550 |
| Cn1ccnc1Sc1ccc(Nc2c(C#N)cnc3cc(-c4ccc(CN5CCOCC5)c(CN5CCOCC5)c4)ccc23)cc1Cl [Example 35, 7-[3,4-Bis(4-morpholinylmethyl)phenyl]-4-[3-chloro-4-[(1-methyl-1H-imidazol-2-yl)sulfanyl]anilino}-3-quinolinecarbonitrile] | < 5 | > 10000 | 6 nM |  |
| Cn1ccnc1Sc1ccc(Nc2c(C#N)cnc3cc(-c4ccc(N5CCN(CCO)CC5)nc4)ccc23)cc1Cl [Example 215, 4-({3-chloro-4-[(1-methyl-1H-imidazol-2-yl)sulfanyl]phenyl}amino)-7-{6-[4-(2-hydroxyethyl)-1-piperazinyl]-3-pyridinyl}-3-quinolinecarbonitrile] | 3.5 | > 1000 |  |  |
| Cn1ccnc1Sc1ccc(Nc2c(C#N)cnc3cc(-c4ccc(CN5CCN(CCO)CC5)cn4)ccc23)cc1Cl [Example 217, 4-({3-chloro-4-[(1-methyl-1H-imidazol-2-yl)sulfanyl]phenyl}amino)-7-(5-{[4-(2-hydroxyethyl)-1-piperazinyl]methyl}-2-pyridinyl)-3-quinolinecarbonitrile] | 36 | > 1000 |  |  |
| Cn1ccnc1Sc1ccc(Nc2c(C#N)cnc3cc(-c4ccc(CN5CCN(CCO)CC5)o4)ccc23)cc1Cl [Example 157, 4-{3-chloro-4-[(1-methyl-1H-imidazol-2-yl)sulfanyl]anilino}-7-(5-{[4-(2-hydroxyethyl)-1-piperazinyl]methyl}-2-furyl)-3-quinolinecarbonitrile] | 24.5 | > 1000 |  |  |
| N#Cc1cnc2cc(-c3ccc(CN4CCOCC4)c(CN4CCOCC4)c3)ccc2c1Nc1ccc(OCc2ccccc2)c(Cl)c1 [Example 132, 4-[4-(benzyloxy)-3-chloroanilino]-7-[3,4-bis(4-morpholinylmethyl)phenyl]-3-quinolinecarbonitrile] | 430 | 7000 |  |  |
| N#Cc1cnc2cc(-c3ccc(CN4CCOCC4)cn3)ccc2c1Nc1ccc(Oc2ccccc2)cc1 [Example 56, 7-[5-(4-Morpholinylmethyl)-2-pyridinyl]-4-(4-phenoxyanilino)-3-quinolinecarbonitrile] | 290 | 1000 | 440 nM and 310 nM | 600 |
| CCN1CCN(Cc2cccc(-c3ccc4c(Nc5ccc(Sc6nccn6C)c(Cl)c5)c(C#N)cnc4c3)n2)CC1 [Example 201, 4-{3-chloro-4-[(1-methyl-1H-imidazol-2-yl)sulfanyl]anilino}-7-{6-[(4-ethyl-1-piperazinyl)methyl]-2-pyridinyl}-3-quinolinecarbonitrile] | 8.4 | > 1000 |  |  |
| CC(C)N1CCN(Cc2ccc(-c3ccc4c(Nc5ccc(Sc6nccn6C)c(Cl)c5)c(C#N)cnc4c3)cc2)CC1 [Example 98, 4-({3-Chloro-4-[(1-methyl-1H-imidazol-2-yl)sulfanyl]phenyl}amino)-7-{4-[(4-isopropyl-1-piperazinyl)methyl]phenyl}-3-quinolinecarbonitrile] | 7.1 | 640 |  |  |
| CCN1CCN(Cc2ccnc(-c3ccc4c(Nc5ccc(Sc6nccn6C)c(Cl)c5)c(C#N)cnc4c3)c2)CC1 [Example 205, 4-({3-chloro-4-[(1-methyl-1H-imidazol-2-yl)sulfanyl]phenyl}amino)-7-{4-[(4-ethyl-1-piperazinyl)methyl]-2-pyridinyl}-3-quinolinecarbonitrile] | 275 | 940 |  |  |

The remaining lines, values ahead:

| IC50 ([1]; Homo sapiens, 96 h) [nM] | IC50 ([2]; Homo sapiens, Caco-2, 96 h) [nM] | IC50 [1] | IC50 [2] [nM] | Structure (SMILES) |
| --- | --- | --- | --- | --- |
| 9.7 | > 1000 |  |  | Cn1ccnc1Sc1ccc(Nc2c(C#N)cnc3cc(-c4cc(CN5CCOCC5)ccn4)ccc23)cc1Cl [Example 203, 4-({3-chloro-4-[(1-methyl-1H-imidazol-2-yl)sulfanyl]phenyl}amino)-7-[4-(4-morpholinylmethyl)-2-pyridinyl]-3-quinolinecarbonitrile] |
| 4.2 | 710 |  |  | Cn1ccnc1Sc1ccc(Nc2c(C#N)cnc3cc(-c4ccc(CN5CCC(O)CC5)s4)ccc23)cc1Cl [Example 159, 4-{3-chloro-4-[(1-methyl-1H-imidazol-2-yl)sulfanyl]anilino}-7-{5-[(4-hydroxy-1-piperidinyl)methyl]-2-thienyl}-3-quinolinecarbonitrile] |
| 15 | > 1000 |  |  | Cn1ccnc1Sc1ccc(Nc2c(C#N)cnc3cc(-c4ccc(CN5CCSCC5)cn4)ccc23)cc1Cl [Example 219] |
| 4.6 | > 1000 |  |  | Cn1ccnc1Sc1ccc(Nc2c(C#N)cnc3cc(-c4ccc(CN5CCC(O)CC5)cc4)ccc23)cc1Cl [Example 134, 4-{3-chloro-4-[(1-methyl-1H-imidazol-2-yl)sulfanyl]anilino}-7-{4-[(4-hydroxy-1-piperidinyl)methyl]phenyl}-3-quinolinecarbonitrile] |
| 6 | 1250 |  |  | CN1CCN(Cc2ccc(-c3ccc4c(Nc5ccc(Sc6nccn6C)c(Cl)c5)c(C#N)cnc4c3)nc2)CC1 [Example 189, 4-{3-chloro-4-[(1-methyl-1H-imidazol-2-yl)sulanyl]anilino}-7-{5-[(4-methyl-1-piperazinyl)methyl]-2-pyridinyl}-3-quinolinecarbonitrile] |
| 4.1 | 620 |  |  | Cn1ccnc1Sc1ccc(Nc2c(C#N)cnc3cc(-c4ccc(CN5CCCCC5)s4)ccc23)cc1Cl [Example 160, 4-{3-chloro-4-[(1-methyl-1H-imidazol-2-yl)sulfanyl]anilino}-7-[5-(1-piperidinylmethyl)-2-thienyl]-3-quinolinecarbonitrile] |
| 6.5 | > 1000 |  |  | CN1CCN(Cc2cccc(-c3ccc4c(Nc5ccc(Sc6nccn6C)c(Cl)c5)c(C#N)cnc4c3)n2)CC1 [Example 202, 4-{3-chloro-4-[(1-methyl-1H-imidazol-2-yl)sulfanyl]anilino}-7-{6-[(4-methyl-1-piperazinyl)methyl]-2-pyridinyl}-3-quinolinecarbonitrile] |
| 74 | > 1000 |  |  | CN1CCN(Cc2ccc(-c3ccc4c(Nc5ccc(Sc6nccn6C)c(Cl)c5)c(C#N)cnc4c3)cn2)CC1 [Example 221, 4-({3-chloro-4-[(1-methyl-1H-imidazol-2-yl)sulfanyl]phenyl}amino)-7-{6-[(4-methyl-1-piperazinyl)methyl]-3-pyridinyl}-3-quinolinecarbonitrile] |
| 3800 | 2200 |  |  | Cn1ccnc1Sc1ccc(Nc2c(C#N)cnc3cc(-c4ccc(CN5CCOCC5)cc4)ccc23)cc1Cl [Example 63, 4-{3-Chloro-4-[(1-methyl-1H-imidazol-2-yl)sulfanyl]anilino}-7-[4-(4-morpholinylmethyl)phenyl]-3-quinolinecarbonitrile] |
